Patent US20070082339A1, “Methods and compositions for screening for HDAC inhibitory activity” (priority 2005, published 2007)

System: A549 cells
Assay: Microarray analysis of gene expression after LAQ824 treatment
Format: cell-based, human
Conditions: A549, 500 nM vs DMSO
Experimental: The human lung carcinoma cell line A549 is obtained from the American Type Culture Collection (Rockville, Md.) and cultured in F-12K (ATCC, Manassas, Va.), 10% fetal bovine serum, and 1% penicillin/streptomycin (Life Technologies, Inc.). LAQ824 (Novartis) is added directly to the cell medium at a final concentration of 500 nM. Microarray analysis is performed essentially as described previously (Welsh, 2001). Total RNA is prepared from A549 cells treated with LAQ 824 or DMSO for 0.5, 2, 6, 12 and 24 h. Labelled cDNA is prepared and hybridized to Affymetrix U133 oligonucleotide GeneChip® (Affymetrix, Santa Clara, Calif.). The arrays were scanned on an Affymetrix GeneArray scanner and analyzed with GENECHIP Microarray Analysis Suite 5.0 software (MAS5) (Affymetrix). The data (raw data including image files and scanner files (Cel. Files) as well as the MAS5 normalized data are stored in the DEMON Database. The MAS5 normalized data are exported from the database and analyzed using GeneSpring software version 6.1. The genes are filtered for a minimal expression of 100 in at least one condition (the condition being defined as the average the value for the 3 samples corresponding to a given time point and a treatement) The gene expression changes (fold change) are calculated for each time point (t) as follow: (Gene expression level LAQ824 treated—(Average of the 3 replicates) Time (t))/(Gene expression level DMSO treated—(Average of the 3 replicates) Time (t)).
Any fold change <0 indicated a down regulation or reduction of the mRNA production, any fold change >0 indicated an up regulation or increase of mRNA production. Genes are filtered according to the fold change and the statistical significance of the changes (1-way-ANOVA test p<0.05)).

SMILES: O=C(/C=C/c1ccc(CN(CCO)CCc2c[nH]c3ccccc23)cc1)NO [LAQ824, N-Hydroxy-3-[4-[[(2-hydroxyethyl)[2-(1H-indol-3-yl)-ethyl]-amino]methyl]phenyl]-2E-2-propenamide]
- Fold change AMP-activated protein kinase family member 5 (ARK5) 204589_at (2 h): −1.1 fold
- Fold change ANP32B acidic (leucine-rich) nuclear phosphoprotein 32 family, member B (SSP29) 201305_x_at (2 h): −1.3 fold
- Fold change AVEN apoptosis, caspase activation inhibitor (Aven) 219366_at (2 h): −1.2 fold
- Fold change B-cell CLL/lymphoma 3 (BCL3) 204908_s_at (2 h): −1.9 fold
- Fold change BAI1-associated protein 2 (BAP2, IRSp53) 205293_x_at (2 h): 1.4 fold
- Fold change BAI1-associated protein 3 (BAP3, KIAA0734) 204874_x_at (2 h): 1.0 fold
- Fold change BAI1-associated protein 3 (BAP3, KIAA0734) 216356_x_at (2 h): 2.3 fold
- Fold change BCL2-associated athanogene 2 (BAG-2) 209406_at (2 h): −1.4 fold
- Fold change BCL2-interacting killer (apoptosis-inducing) (BP4, NBK, BIP1) 205780_at (2 h): 2.0 fold
- Fold change BCL2-like 1 (BCL2L1) 206665_s_at (2 h): −1.2 fold
- Fold change BH3 interacting domain death agonist (BID) 204493_at (2 h): 1.1 fold
- Fold change Cyclin A2 (CCN1, CCNA) 203418_at (2 h): −1.3 fold
- Fold change Cyclin-dependent kinase inhibitor 2D (p19, inhibits CDK4) (INK4D) 210240_s_at (2 h): 1.9 fold
- Fold change DEC1-anti apoptosis (BHLHB2) 201169_s_at (2 h): −3.2 fold
- Fold change Diphtheria toxin receptor (heparin-binding epidermal growth factor-like growth factor) (DTR) 203821_at (2 h): 9.8 fold
- Fold change Early growth response 1 (TIS8, NGFI-A, KROX-24, ZIF-268) 201694_s_at (2 h): 1.4 fold
- Fold change GMCL germ cell-less homolog (Drosophila) (GMCL) 218458_at (2 h): 1.7 fold
- Fold change Katanin p80 (WD40-containing) subunit B 1 (KAT) 203163_at (2 h): 1.5 fold
- Fold change NACHT, leucine rich repeat and PYD containing 1 (PP1044) 218380_at (2 h): 2.8 fold
- Fold change Paternally expressed Gene 10 (PEG10) 212092_at (2 h): 1.1 fold
- Fold change Paternally expressed Gene 10 (PEG10) 212094_at (2 h): 1.1 fold
- Fold change Protein regulator of cytokinesis 1 (PRC1) 218009_s_at (2 h): −1.2 fold
- Fold change SKAP55 protein 216899_s_at (2 h): 1.0 fold
- Fold change Secreted frizzled-related protein 1 (FRP, SARP2) 202036_s_at (2 h): 1.1 fold
- Fold change Secreted frizzled-related protein 1 (FRP, SARP2) 202037_s_at (2 h): 1.1 fold
- Fold change Serine/threonine kinase 6 (AIK) 208079_s_at (2 h): 1.0 fold
- Fold change Tribbles homolog 3a (TRIB3) 218145_at (2 h): −1.3 fold
- Fold change Tumor necrosis factor receptor superfamily, member 6 (TNFRSF6) 215719_x_at (2 h): −1.3 fold
- Fold change Tumor necrosis factor receptor superfamily, member 6 (TNFRSF6) 216252_x_at (2 h): −1.3 fold
- Fold change Tumor protein p53 (Li-Fraumeni syndrome) 201746_at (2 h): 1.1 fold
- Fold change Tumor protein p53 (Li-Fraumeni syndrome) 211300_s_at (2 h): 1.1 fold
- Fold change member of the N-myc downregulated gene family (NDRG4) 209159_s_at (2 h): 1.2 fold
- Fold change AMP-activated protein kinase family member 5 (ARK5) 204589_at (6 h): −4.3 fold
- Fold change ANP32B acidic (leucine-rich) nuclear phosphoprotein 32 family, member B (SSP29) 201305_x_at (6 h): −1.6 fold
- Fold change AVEN apoptosis, caspase activation inhibitor (Aven) 219366_at (6 h): −1.5 fold
- Fold change B-cell CLL/lymphoma 3 (BCL3) 204908_s_at (6 h): −10.5 fold
- Fold change BAI1-associated protein 2 (BAP2, IRSp53) 205293_x_at (6 h): 6.2 fold
- Fold change BAI1-associated protein 3 (BAP3, KIAA0734) 204874_x_at (6 h): 5.1 fold
- Fold change BAI1-associated protein 3 (BAP3, KIAA0734) 216356_x_at (6 h): 11.1 fold
- Fold change BCL2-associated athanogene 2 (BAG-2) 209406_at (6 h): −2.4 fold
- Fold change BCL2-interacting killer (apoptosis-inducing) (BP4, NBK, BIP1) 205780_at (6 h): 6.3 fold
- Fold change BCL2-like 1 (BCL2L1) 206665_s_at (6 h): −4.2 fold
- Fold change BH3 interacting domain death agonist (BID) 204493_at (6 h): −1.9 fold
- Fold change Cyclin A2 (CCN1, CCNA) 203418_at (6 h): −2.3 fold
- Fold change Cyclin-dependent kinase inhibitor 2D (p19, inhibits CDK4) (INK4D) 210240_s_at (6 h): 4.9 fold
- Fold change DEC1-anti apoptosis (BHLHB2) 201169_s_at (6 h): −4.5 fold
- Fold change Diphtheria toxin receptor (heparin-binding epidermal growth factor-like growth factor) (DTR) 203821_at (6 h): 8.5 fold
- Fold change Early growth response 1 (TIS8, NGFI-A, KROX-24, ZIF-268) 201694_s_at (6 h): 3.6 fold
- Fold change GMCL germ cell-less homolog (Drosophila) (GMCL) 218458_at (6 h): 4.1 fold
- Fold change Katanin p80 (WD40-containing) subunit B 1 (KAT) 203163_at (6 h): 2.9 fold
- Fold change NACHT, leucine rich repeat and PYD containing 1 (PP1044) 218380_at (6 h): 7.6 fold
- Fold change Paternally expressed Gene 10 (PEG10) 212092_at (6 h): 2.0 fold
- Fold change Paternally expressed Gene 10 (PEG10) 212094_at (6 h): 1.9 fold
- Fold change Protein regulator of cytokinesis 1 (PRC1) 218009_s_at (6 h): −1.9 fold
- Fold change SKAP55 protein 216899_s_at (6 h): 1.6 fold
- Fold change Secreted frizzled-related protein 1 (FRP, SARP2) 202036_s_at (6 h): 1.6 fold
- Fold change Secreted frizzled-related protein 1 (FRP, SARP2) 202037_s_at (6 h): 1.8 fold
- Fold change Serine/threonine kinase 6 (AIK) 208079_s_at (6 h): −2.0 fold
- Fold change Tribbles homolog 3a (TRIB3) 218145_at (6 h): −4.6 fold
- Fold change Tumor necrosis factor receptor superfamily, member 6 (TNFRSF6) 215719_x_at (6 h): −3.2 fold
- Fold change Tumor necrosis factor receptor superfamily, member 6 (TNFRSF6) 216252_x_at (6 h): −2.9 fold
- Fold change Tumor protein p53 (Li-Fraumeni syndrome) 201746_at (6 h): −1.9 fold
- Fold change Tumor protein p53 (Li-Fraumeni syndrome) 211300_s_at (6 h): −1.6 fold
- Fold change member of the N-myc downregulated gene family (NDRG4) 209159_s_at (6 h): 2.8 fold
